One molecule from patent US20030055405A1, “Iontophoretic Drug Delivery Device and Reservoir and Method of Making Same” (Vyteris, Inc., priority 1993, published 2003) can be followed below.

The nature of the series: Shelf stability of the loaded reservoir electrode assembly in storage. Type of series: physicochemical. Particulars: incorporated into the reservoir.

Source text: In the present example, an aqueous loading solution of 30% lidocaine HCI, 3% epinephrine, 30% glycerin, 0.05% sodium metabisulfite, 0.03% ethylene diamine tetraacetic acid, and 0.06% citric acid are used for the loading solution. The medicaments for delivery are lidocaine HCI and epinephrine, the glycerin serves as a humectant, the other minor components serve to enhance drug stability by chelating metal ions and serving as antioxidants. In order to load this solution onto the reservoir with electrode 112, laminate release liner 132 is removed from side 118 of reservoir 114 and a three-hundred microliter aliquot of this loading solution is applied to exposed surface 118, which is then covered with a final cover that remains in place until the reservoir is applied to a patient to protect the reservoir.

Consider `CNC[C@H](O)c1ccc(O)c(O)c1` [epinephrine, Epinephrine Bitartrate], for which the “shelf stability of labile medicament” value was “satisfactory shelf stability”.
